Data reported in ChEMBL document CHEMBL2074393, “Impact of Mrp2 on the biliary excretion and intestinal absorption of furosemide, probenecid, and methotrexate using Eisai hyperbilirubinemic rats” (Pharm Res, 2003).

Legend:
[1] = target: T1, ATP-binding cassette sub-family C member 2 (Rattus norvegicus, UniProt Q63120); assay: TP_TRANSPORTER: In vivo biliary excretion in vivo, biliary excretion of SDR and EHBR rat; assay type: functional, organism-based, Bile
[2] = target: T1, ATP-binding cassette sub-family C member 2; assay: TP_TRANSPORTER: In vivo biliary excretion of SDR rat; assay type: functional, organism-based, Sprague-Dawley, Bile

T1 sequence (Q63120 whole entry): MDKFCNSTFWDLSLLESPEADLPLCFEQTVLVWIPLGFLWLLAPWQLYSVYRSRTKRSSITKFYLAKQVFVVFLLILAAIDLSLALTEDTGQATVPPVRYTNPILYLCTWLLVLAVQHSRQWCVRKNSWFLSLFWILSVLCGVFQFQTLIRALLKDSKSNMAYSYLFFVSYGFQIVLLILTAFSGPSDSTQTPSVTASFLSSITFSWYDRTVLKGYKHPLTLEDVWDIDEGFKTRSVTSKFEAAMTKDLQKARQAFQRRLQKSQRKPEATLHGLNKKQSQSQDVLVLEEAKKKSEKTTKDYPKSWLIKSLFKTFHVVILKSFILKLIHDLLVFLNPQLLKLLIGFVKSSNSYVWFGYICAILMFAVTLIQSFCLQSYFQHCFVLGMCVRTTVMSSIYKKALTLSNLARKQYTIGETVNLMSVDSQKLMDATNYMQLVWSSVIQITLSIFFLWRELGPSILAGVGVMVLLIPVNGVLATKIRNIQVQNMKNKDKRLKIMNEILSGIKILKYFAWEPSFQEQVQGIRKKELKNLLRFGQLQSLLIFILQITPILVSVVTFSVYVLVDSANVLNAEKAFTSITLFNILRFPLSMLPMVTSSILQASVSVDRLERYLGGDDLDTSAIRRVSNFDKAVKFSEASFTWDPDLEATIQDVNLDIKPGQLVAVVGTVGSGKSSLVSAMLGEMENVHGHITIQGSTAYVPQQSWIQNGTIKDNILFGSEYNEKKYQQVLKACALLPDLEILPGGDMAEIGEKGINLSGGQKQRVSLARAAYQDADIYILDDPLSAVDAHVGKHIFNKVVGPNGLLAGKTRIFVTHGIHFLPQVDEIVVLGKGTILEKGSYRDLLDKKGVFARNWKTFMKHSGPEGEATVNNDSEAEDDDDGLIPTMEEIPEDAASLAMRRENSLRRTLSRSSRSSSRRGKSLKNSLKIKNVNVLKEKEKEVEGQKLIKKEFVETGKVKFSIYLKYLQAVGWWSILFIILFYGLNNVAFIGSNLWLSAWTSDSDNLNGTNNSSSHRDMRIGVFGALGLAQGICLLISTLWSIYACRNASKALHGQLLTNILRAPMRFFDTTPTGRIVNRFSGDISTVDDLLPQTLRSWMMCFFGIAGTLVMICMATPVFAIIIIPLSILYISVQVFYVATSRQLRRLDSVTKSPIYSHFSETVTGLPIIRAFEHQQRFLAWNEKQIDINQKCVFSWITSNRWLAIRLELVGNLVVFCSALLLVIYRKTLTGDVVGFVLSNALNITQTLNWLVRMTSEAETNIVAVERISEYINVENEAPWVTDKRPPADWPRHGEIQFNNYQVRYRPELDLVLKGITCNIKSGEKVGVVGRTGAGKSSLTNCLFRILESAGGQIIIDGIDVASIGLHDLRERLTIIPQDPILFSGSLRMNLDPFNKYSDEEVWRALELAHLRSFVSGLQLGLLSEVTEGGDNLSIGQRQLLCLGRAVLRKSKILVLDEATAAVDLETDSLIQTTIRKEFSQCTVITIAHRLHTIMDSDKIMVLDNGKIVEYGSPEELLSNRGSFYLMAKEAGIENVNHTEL

SMILES	Activity [1]	Activity [2]
CN(Cc1cnc2nc(N)nc(N)c2n1)c1ccc(C(=O)N[C@@H](CCC(=O)O)C(=O)O)cc1 [METHOTREXATE]	substrate []	substrate []
CCCN(CCC)S(=O)(=O)c1ccc(C(=O)O)cc1 [PROBENECID]	substrate []	substrate []
